Assay results as given in patent publication US12173039B1, “TPL2 inhibiting agents, uses thereof, and detection of TPL2” (Washington University, priority 2021, dated 2024).

Key:
p-MEK, p-ERK, and p-RSK = test: Immunoblots of MAPK pathway markers in human cell lines; assay type: cell-based
Description: (§1) Standard immunoblotting procedure was followed. Cells were washed twice with ice-cold 1×PBS and lysed with ice-cold triton-X lysis buffer (25 mM Tris, pH 7.4, 150 mM NaCl, 5 mM EDTA, 1% Triton-X) containing 1× protease (10 μg mL-1 leupeptin, 700 ng mL-1 pepstatin, 170 ng mL-1 aprotinin, 1 mM PMSF) and phosphatase (10 mM NaF, 1 mM Na3VO4, 1 mM Na4P2O^7, 5 mM Na b-glycerophosphate) inhibitors. Lysates were quantified by Bradford assay (Thermo Scientific), normalized for concentration, and reduced and denatured with 6×SDS sample buffer followed by boiling for 5 minutes. 20-40 μg of protein per sample was resolved by SDS-PAGE, blotted on PVDF membrane and probed with primary antibodies (Cell Signaling Technologies: p-ERK1/2 (#4370), p-MEK1/2 (#9154), ERK1/2 (#4695), MEK1/2 (#8727), p-p105 (#4806), NFS2KB1 p105/p50 (#3035), p-IRAK4 (#11927), IRAK4 (#4363), ubiquitin (#43124), anti-HA (#3724), p-p90RSK (#11989), RSK1/2/3 (#9355), p-TPL2 (#4491), PARP (#9532), p-B-RAF S445 (#2696), BRAF (#9433S). Santa Cruz Biotechnology: GAPDH (#sc-32233), p-p65 S536 (#sc101752). Thermo Fisher Scientific: p-55 TPL2 (#PA5-36635). EMD Millipore: IRAK4 (#07-418). R&D systems: TPL2/MAP3K8 (#MAB4586). Novus Biologicals: anti-AU1 (#NB600-453). Abcam: p-p65 S276 (#ab194726)). Membranes were incubated with appropriate HRP-conjugated secondary antibodies (anti-mouse or anti-rabbit, (1:5000 dilution), Jackson Laboratory) and imaged using chemiluminescent substrate. Additional steps for immunoprecipitation include incubation of soluble fraction lysate with anti-HA magnetic beads (Thermo Scientific cat #88837) overnight at 4° C., washing, and elution using 1×SDS sample buffer and boiling as mentioned in manufacturer's protocol.

MAPK activity = test: Immunoblots of MAPK activity in murine PDAC lines KP2 and KI; assay type: cell-based; conditions: 24 hours, serum-free
Description: as §1, with “S536” left out, “S276” left out, “Membranes were incubated with appropriate HRP-conjugated secondary antibodies (anti-mouse or anti-rabbit, (1:5000 dilution), Jackson Laboratory) and imaged using chemiluminescent substrate. Additional steps for immunoprecipitation include incubation of soluble fraction lysate with anti-HA magnetic beads (Thermo Scientific cat #88837) overnight at 4° C., washing, and elution using 1×SDS sample buffer and boiling as mentioned in manufacturer's protocol.” left out

p-p105, p-p65 = test: Immunoblots of NF-κB markers in PDAC cells; assay type: cell-based, human; conditions: Pa01C, Pa02C, Pa03C, and HPAC cells; IRAK4 inhibition
Description: as §1

NF-κB reporter activity = test: NF-κB luciferase reporter assay; assay type: cell-based, human; conditions: KRAS-mutant PDAC cells (PANC-1); serial dilutions from 20 μM; 18 hours
Description: Cells stably expressing plasmid encoding serum-response-element (SRE) or NFKB promoter driven Firefly luciferase and constitutive Renilla luciferase were seeded at equal density per well and treatment was initiated the next day for 16-24 duration. Alternatively, 293T reporter cells were transfected in duplicate or triplicate with 1 μg of appropriate plasmid DNA. Medium was replaced 16-18 hours later and at 48 hours post-transfection reporter activity was measured using Dual-Glo® Luciferase Assay System. Data was acquired using SpectraMax i3Microplate Reader and analysis was performed by calculating ratio of firefly:renilla. Values were normalized to control and graphed using GraphPad Prism v7/8 software.

KRAS-mutant PDAC lines = test: Drug response and viability assay (AlamarBlue), PDAC lines; assay type: cell-based, human; conditions: various KRAS-mutant PDAC lines; 5 and 7 days
Description: Cells were seeded at 1500-2500 cells per well in triplicates, in 96 well format. Next day, appropriate inhibitor was added in serial dilution from 1.00×102 μM or indicated single doses. Vehicle (DMSO) was added to match volume of inhibitor used for highest concentration. […] Fluorescence at 585 nm (excitation 555 nm) was measured by SpectraMax i3 Microplate Reader. Raw values were normalized to vehicle, analyzed and graphed using GraphPad Prism v7/8 software.

[1] = tested on: HPNE-KRAS^G12D cells, HEKT/tH-KRAS^G12V cells, conventional PDAC lines, and PDCLs; test: Anchorage independent soft agar growth assay, human KRAS-mutant lines; assay type: cell-based
Description: Cells were seeded at 5000-15000 cells in 0.3% noble agar-DMEM suspension per well, in triplicate, in 24 well plate. For drug treatment, compound was added to cell suspension at 1× concentration. Seeded cells were fed with fresh 0.6% agar-DMEM mix once every 7-12 days. […] After 3-6 weeks, colonies were counted under microscope and imaged. Colony count was normalized to control and graphed in GraphPad Prism v7/8.

MAPK activity (immunoblot) (MAPK activity): dose-dependently suppressed | NF-κB reporter activity (NF-κB reporter activity): dose-dependently suppressed
Structure (SMILES): CC[C@@H]1[C@H](F)C(=O)N[C@@H]1COc1nccc2cc(C(N)=O)c(OC)cc12 [PF06650833, 1-(((2S,3S,4S)-3-ethyl-4-fluoro-5-oxopyrrolidin-2-yl)methoxy)-7-methoxyisoquinoline-6-carboxamide]
p-MEK and p-ERK (p-MEK, p-ERK, and p-RSK; 293T cells transfected with oncogenic BRAF^V600E, 24 hours): neither TPL2i nor IRAK4i suppressed | p-MEK and p-ERK / MAPK activity (p-MEK, p-ERK, and p-RSK; BxPc-3 PDAC line (BRAF mutation, WT KRAS)): neither TPL2i nor IRAK4i suppressed | KRAS mutant-upregulated p-MEK, p-ERK, and p-RSK levels (p-MEK, p-ERK, and p-RSK; HPNE-KRAS^G12D and 293T-KRAS^G12V, 24 hours, serum-free): dose-dependently blocked | p-MEK and p-ERK levels enhanced by ectopic TPL2 (p-MEK, p-ERK, and p-RSK; Pa01C and HPAC cells overexpressing TPL2, serum-free): blocked | MAPK activity (immunoblot) (p-MEK, p-ERK, and p-RSK; Pa01C, Pa02C, Pa03C and HPAC, 16 hours): dose-dependently suppressed | p-p105 levels (p-p105, p-p65): suppresses | viability (KRAS-mutant PDAC lines): dose-dependently reduced | AI growth ([1]; HPNE-KRAS^G12D cells): crippled the AI growth | AI growth enhanced by IRAK4 overexpression ([1]; HPNE-KRAS^G12D cells ectopically expressing IRAK4): reversed the effect of IRAK4 overexpression
